Test results from patent US12168003B2, “Selective inhibition of T follicular helper cells for treatment of autoimmune disorders” (priority 2019, dated 2024).

How the values were obtained:
Format in all cases: in vivo, mouse
EAE mice = test: Active EAE (MOG33-55/CFA), 4EGI-1 from initiation of EAE
Procedure: Ten-week old female mice purchased from Jackson Laboratory were subcutaneously injected at two sites with 100 μL […] emulsified in CFA (Hooke Labs) per flank. On the same day, 6 hours later, and on day 2, mice were injected with 100 ng of pertussis toxin in 200 μL i.p. Mice were monitored daily and scored on a scale of 0-5 where 0, no disease; 1, tail paralysis; 2; hind limb paresis; 3, complete hind limb paralysis; 4, front limb weakness and hind limb paralysis, and 5, moribund state. When stated, mice were either administered 25 mg/kg 4EGI-1 or vehicle i.p. from d 0 to 21 following EAE induction or 75 mg/kg 4EGI-1 or vehicle i.p. from day 12 to 21 following EAE induction and randomization. LFB-H images imported into FIJI underwent color deconvolution to isolate myelin staining. A binary image was generated and % myelination of the spinal cord was calculated. Spinal cords from mice not subjected to EAE were set to 100% and all other samples from the same group were normalized. H&E images imported into FIJI underwent color deconvolution to isolate hematoxylin staining. A binary image was generated and % infiltration of the spinal cord of was calculated. Five-micron sections of paraffin embedded tissue were stained with Akoya Biosciences® Opal™ multiplex automation kit reagents unless stated otherwise. Automated staining was performed on Leica BondRX® autostainer. The protocol was performed according to manufacturers' instructions with primary antibodies to CD19 (Cell Signaling Technology, cat #90176) and CD4 (Cell Signaling Technology, cat #25229). Briefly, all slides underwent sequential epitope retrieval with Leica Biosystems epitope retrieval 2 solution (EDTA based, pH9, Cat. AR9640), primary and secondary antibody incubation and tyramide signal amplification (TSA) with Opal® fluorophores Op690 and Op520. Primary and secondary antibodies were removed during epitope retrieval steps while fluorophores remain covalently attached to the epitope. Semi-automated image acquisition was performed on a Vectra® Polaris multispectral imaging system. After whole slide scanning at 10× the tissue was manually outlined to select fields for multispectral imaging at 20×. Phenochart® software from Akoya Biosciences was used for spectral unmixing of the whole slide scans. Scans were imported into QuPath and representative images were exported into FIJI.

OT2 T cells = test: OT2 T cell pre-treatment with 4EGI-1 before adoptive transfer; conditions: 20 μM 4EGI-1 1 hour before transfer
Procedure: For functional TFH studies: OT2 T cells were isolated and activated, as described, and treated with vehicle or 20 μM 4EGI-1 for 1 hour at 37° C. in vitro prior to transfer of 2×10^6 OT2 T cells i.p. per CD45.1 recipient. Recipient animals were immunized with 100 μg OVA alum 4 days prior. Three days following transfer and 7 days following initial immunization, OT2 T cells that had formed TFH cells were determined.
For long-term studies: OT2 T cells were isolated and activated, as described, and treated with vehicle or 20 μM 4EGI-1 for 1 h at 37° C. in vitro prior to transfer of 12×10^6 OT2 T cells i.p. per CD45.1 recipient. OT2 T cells were enumerated 34 days post transfer and intracellular levels of eIF4E were determined.

[1] = test system: eIF4E cap-dependent protein synthesis in the CD4+ T cell compartment; test: SUnSET protein synthesis assay in CD4+ T cells of mice dosed with 4EGI-1; conditions: 25 mg/kg daily
Procedure: Determination of eIF4E activity in vivo should compare untreated to treated animals. Specimens may include single-cell suspensions of splenocytes isolated using Percoll gradient purification followed by plating in X-VIVO media (Lonza) containing 5% human AB serum (Sigma) and Glutamax at 37° C. for one hour and subjected to SuNSET assay for 10 minutes to determine active protein synthesis rates according to manufacturer instructions (AG Scientific) and shown in FIGS. 10A and 14B.
Mice were immunized with 100 μg OVA/Alum and 7 days following, spleens were harvested and single-cell suspensions were generated. Splenocytes were incubated in mouse T cell media (detailed in Silencing of eIF4E in OT2 T cells by lentivirus transduction) with 0-25 μM 4EGI-1 for 4 hours at 37° C. Cells were stained with a live/dead viability marker and then for extracellular expression of CD4, CXCR5, PD-1, or ICOS or intranuclear expression of BCL6. For the SuNSET assay, cells from above were incubated 37° C. with 10 μg/mL puromycin for 10 minutes. Control samples were incubated with puromycin and 100 μg/mL cycloheximide. Cells were incubated with a live/dead viability marker and extracellular stain prior to fixation and permeabilization (BD Biosciences Fixation/Permeabilization Solution) and intracellular staining with anti-puromycin followed by anti-mouse IgG2a antibody conjugated to Alexa Fluor 488.

## O=C(O)C(Cc1ccccc1[N+](=O)[O-])=NNc1nc(-c2ccc(Cl)c(Cl)c2)cs1 (mixture of isomers) [4EGI-1]
EAE mice; 25 mg/kg daily i.p., day 0 to 21
  clinical EAE severity (daily clinical score): significantly reduced
EAE mice; 25 mg/kg daily i.p., from EAE induction
  disease-associated weight loss: significantly reduced
EAE mice; 25 mg/kg daily, EAE mice
  ELFs (ectopic lymphoid follicles) in spinal cord: substantially reduced
EAE mice; 25 mg/kg daily, EAE mice, immunofluorescence
  numbers of CD4+ T and B cells in the spinal cords: strongly reduced
EAE mice; 25 mg/kg daily, Luxol fast blue
  level of myelination of the spinal cord (normal = 100%): ~98%
EAE mice; 25 mg/kg daily, day 21 of EAE
  CD4+ T cells producing IFN-γ in spinal cord and brain: almost abolished
  CD4+ T cells producing IL-17A in spinal cord and brain: almost abolished
  reduction of CD4+ T cells in the brain: 3 fold
  reduction of CD4+ T cells in the spinal cord: 3 fold
  reduction of TFH cells in the spleen: 3 fold
OT2 T cells; 34 days post-transfer
  OT2 T cells populating the spleen vs non-treated OT2 T cells: equal
OT2 T cells; assayed 7 days
  OT2 T cells populating the spleen vs non-treated OT2 T cells: equal
OT2 T cells; day 34 post-transfer
  intracellular levels of eIF4E in recovered OT2 T cells: sustained reduction
OT2 T cells; following OVA/Alum immunization
  reduction in number of OT2 TFH cells in the spleen: two-thirds
[1]; mice
  tolerability: well tolerated
[1]; uninfected mice, SUnSET (FIG. 1A)
  inhibition of eIF4E cap-dependent protein synthesis in the CD4+ T cell compartment: approximately 30%
